Laboratory results published in patent publication US8377955B2, “Branched 3- and 6-substituted quinolines as CGRP receptors antagonists” (Merck, Sharp & Dohme, Corp., priority 2008, dated 2013).
Where two headings read alike, the source gives them in different places. No end group written: not given here.

Tests used:
Human CGRP receptor = molecular target: T1, Human CGRP receptor (Homo sapiens, UniProt O60894+Q16602); experiment: Human CGRP receptor binding (125I-CGRP displacement)
T1 construct: expressed in transfected cells; membranes
T1 sequence (Q16602 23-461): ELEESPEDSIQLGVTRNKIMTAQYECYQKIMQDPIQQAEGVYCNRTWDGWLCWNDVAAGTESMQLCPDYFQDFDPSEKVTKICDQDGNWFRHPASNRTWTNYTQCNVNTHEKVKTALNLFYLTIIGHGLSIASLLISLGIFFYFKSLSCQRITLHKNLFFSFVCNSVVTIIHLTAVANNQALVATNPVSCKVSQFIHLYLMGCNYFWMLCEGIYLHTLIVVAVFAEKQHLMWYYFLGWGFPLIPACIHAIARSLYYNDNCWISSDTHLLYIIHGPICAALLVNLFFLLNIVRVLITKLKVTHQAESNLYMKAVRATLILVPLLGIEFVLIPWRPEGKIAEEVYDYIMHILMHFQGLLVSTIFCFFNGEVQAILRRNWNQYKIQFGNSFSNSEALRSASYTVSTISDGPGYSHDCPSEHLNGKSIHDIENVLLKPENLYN
T1 sequence (O60894 27-148): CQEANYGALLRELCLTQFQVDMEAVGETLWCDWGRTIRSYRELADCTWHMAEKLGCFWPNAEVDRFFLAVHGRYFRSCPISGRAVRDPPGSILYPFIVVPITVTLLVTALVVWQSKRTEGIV
Description: NATIVE RECEPTOR BINDING ASSAY: The binding of ^125I-CGRP to receptors in SK-N-MC cell membranes was carried out essentially as described (Edvinsson et al. (2001) Eur. J. Pharmacol. 415, 39-44). Briefly, membranes (25 μg) were incubated in 1 mL of binding buffer [10 mM HEPES, pH 7.4, 5 mM MgCl2 and 0.2% bovine serum albumin (BSA)] containing 10 pM ^125I-CGRP and antagonist. After incubation at room temperature for 3 h, the assay was terminated by filtration through GFB glass fibre filter plates (PerkinElmer) that had been blocked with 0.5% polyethyleneimine for 3 h. The filters were washed three times with ice-cold assay buffer (10 mM HEPES, pH 7.4 and 5 mM MgCl2), then the plates were air dried. Scintillation fluid (50 μL) was added and the radioactivity was counted on a Topcount (Packard Instrument). Data analysis was carried out by using Prism and the Ki was determined by using the Cheng-Prusoff equation (Cheng & Prusoff (1973) Biochem. Pharmacol. 22, 3099-3108).
RECOMBINANT RECEPTOR: Human CL receptor (Genbank accession number L76380) was subcloned into the expression vector pIREShyg2 (BD Biosciences Clontech) as a 5′NheI and 3′ PmeI fragment. Human RAMP1 (Genbank accession number AJ001014) was subcloned into the expression vector pIRESpuro2 (BD Biosciences Clontech) as a 5′NheI and 3′NotI fragment. HEK 293 cells (human embryonic kidney cells; ATCC #CRL-1573) were cultured in DMEM with 4.5 g/L glucose, 1 mM sodium pyruvate and 2 mM glutamine supplemented with 10% fetal bovine serum […], 100 units/mL penicillin and 100 μg/mL streptomycin, and maintained at 37° C. and 95% humidity. Cells were subcultured by treatment with 0.25% trypsin with 0.1% EDTA in HBSS. Stable cell line generation was accomplished by co-transfecting 10 μg of DNA with 30 μg Lipofectamine 2000 (Invitrogen) in 75 cm^2 flasks. CL receptor and RAMP1 expression constructs were co-transfected in equal amounts. Twenty-four hours after transfection the cells were diluted and selective medium (growth medium+300 μg/mL hygromycin and 1 μg/mL puromycin) was added the following day. A clonal cell line was generated by single cell deposition utilizing a FACS Vantage SE (Becton Dickinson). Growth medium was adjusted to 150 μg/mL hygromycin and 0.5 μg/mL puromycin for cell propagation.
RECOMBINANT RECEPTOR BINDING ASSAY: Cells expressing recombinant human CL receptor/RAMP1 were washed with PBS and harvested in harvest buffer containing 50 mM HEPES, 1 mM EDTA and Complete protease inhibitors (Roche). The cell suspension was disrupted with a laboratory homogenizer and centrifuged at 48,000 g to isolate membranes. The pellets were resuspended in harvest buffer plus 250 mM sucrose and stored at −70° C. For binding assays, 20 μg of membranes were incubated in 1 ml binding buffer (10 mM HEPES, pH 7.4, 5 mM MgCl2, and 0.2% BSA) for 3 hours at room temperature containing 10 pM ^125I-hCGRP (GE Healthcare) and antagonist. The assay was terminated by filtration through 96-well GFB glass fiber filter plates (PerkinElmer) that had been blocked with 0.05% polyethyleneimine. […]
[formula] Where Y is observed CPM bound, Ymax is total bound counts, Ymin is non specific bound counts, (Ymax−Ymin) is specific bound counts, % Imax is the maximum percent inhibition, % I min is the minimum percent inhibition, radiolabel is the probe, and the Kd is the apparent dissociation constant for the radioligand for the receptor as determined by Hot saturation experiments.

facial blood flow [1] = details: marmoset, electrical stimulation of the trigeminal ganglion (Dodds et al. 2000); cited from earlier work
[2] = system: headache induced by CGRP infusion; details: control group (Petersen et al. 2005); cited from earlier work
[3] = system: acute attacks of migraine; details: clinical trials (Olesen et al. 2004); cited from earlier work
middle meningeal artery = details: rats, electrical stimulation of the dura mater, prior administration (Williamson et al. 1997); cited from earlier work
facial blood flow [4] = details: rat, trigeminal ganglion stimulation (Escott et al. 1995); cited from earlier work
[5] = table of Examples 32-37, read-out: Ki
[6] = read-out: Human CGRP receptor binding Ki

**Q.** For CC(C)(C)OC(=O)CC(NC(=O)c1cnc2cc3c(cc2c1)C[C@@]1(C3)C(=O)Nc2ncccc21)c1ccccc1 (stereo partly shown) [Example 36], which Ki (Human CGRP receptor; [5]) is on record?
**A.** The Ki was 76 nM.

**Q.** For CC(C)(C)OC(=O)[C@H](NC(=O)c1cnc2cc3c(cc2c1)C[C@@]1(C3)C(=O)Nc2ncccc21)c1ccccc1 [Example 33], which Ki (Human CGRP receptor; [5]) is on record?
**A.** The Ki was 120 nM.

**Q.** With CCOC(=O)CN(Cc1ccccc1)C(=O)c1cnc2cc3c(cc2c1)C[C@@]1(C3)C(=O)Nc2ncccc21 [Example 2, Ethyl(benzyl{[(7S)-2′-oxo-1′,2′,6,8-tetrahydrospiro[cyclopenta[g]quinoline-7,3′-pyrrolo[2,3-b]pyridin]-3-yl]carbonyl}amino)acetate] as the compound, how does the Ki (Human CGRP receptor; [6]) read?
**A.** The Ki was 60 nM.

**Q.** What does the source list for NCCCC[C@H](NC(=O)[C@@H](Cc1cc(Br)c(O)c(Br)c1)NC(=O)N1CCC(N2Cc3ccccc3NC2=O)CC1)C(=O)N1CCN(c2ccncc2)CC1 [BIBN4096BS]?
**A.** effect on increase in facial blood flow (facial blood flow [1]): blocked; prevention of headache induced by CGRP infusion [2]: able to prevent headache induced by CGRP infusion; efficacy in treating acute attacks of migraine [3]: effective in treating acute attacks of migraine

**Q.** Which “effect on increase in diameter of the middle meningeal artery” value (middle meningeal artery) does the source give for “CGRP (8-37): a peptide CGRP antagonist; fragment of CGRP that lacks seven N-terminal amino acid residues (VTHRLAGLLSRSGGVVKNNFVPTNVGSKAF; ends and bridges not checked; UniProt P06881 90-119, looked up, fragment)” here?
**A.** The value was “blocked”.

**Q.** What about the “effect on increased facial blood flow” value (facial blood flow [4]) of the same compound?
**A.** Its value is “inhibited”.

**Q.** For CC(C)(C)OC(=O)[C@@H](NC(=O)c1cnc2cc3c(cc2c1)C[C@@]1(C3)C(=O)Nc2ncccc21)c1ccccc1 [Example 34], which Ki (Human CGRP receptor; [5]) is on record?
**A.** Its Ki is 140 nM.

**Q.** Which Ki (Human CGRP receptor; [6]) does the source give for CC(c1cc(F)cc(F)c1)N(Cc1cnc2cc3c(cc2c1)C[C@@]1(C3)C(=O)Nc2ncccc21)C(=O)C1CCOCC1 (stereo in doubt) [Example 1, N-[(1R)-1-(3,5-Difluorophenyl)ethyl]-N-{[(7S)-2′-oxo-1′,2′,6,8-tetrahydrospiro-[cyclopenta[g]quinoline-7,3′-pyrrolo[2,3-b]pyridin]-3-yl]methyl}tetrahydro-2H-pyran-4-carboxamide] here?
**A.** The Ki was 0.05 nM.
